molecular target: T1, JAK3 (JH1 and JH2 domain) (Homo sapiens, UniProt P52333); experiment: JAK3 Kinase Assay (ELISA of peptide substrate phosphorylation); format: biochemical; settings: purified JAK3 enzyme, 10 μM ATP, biotinylated peptide substrate, 1 hour at room temperature
T1 sequence (P52333 521-1111 limits assumed): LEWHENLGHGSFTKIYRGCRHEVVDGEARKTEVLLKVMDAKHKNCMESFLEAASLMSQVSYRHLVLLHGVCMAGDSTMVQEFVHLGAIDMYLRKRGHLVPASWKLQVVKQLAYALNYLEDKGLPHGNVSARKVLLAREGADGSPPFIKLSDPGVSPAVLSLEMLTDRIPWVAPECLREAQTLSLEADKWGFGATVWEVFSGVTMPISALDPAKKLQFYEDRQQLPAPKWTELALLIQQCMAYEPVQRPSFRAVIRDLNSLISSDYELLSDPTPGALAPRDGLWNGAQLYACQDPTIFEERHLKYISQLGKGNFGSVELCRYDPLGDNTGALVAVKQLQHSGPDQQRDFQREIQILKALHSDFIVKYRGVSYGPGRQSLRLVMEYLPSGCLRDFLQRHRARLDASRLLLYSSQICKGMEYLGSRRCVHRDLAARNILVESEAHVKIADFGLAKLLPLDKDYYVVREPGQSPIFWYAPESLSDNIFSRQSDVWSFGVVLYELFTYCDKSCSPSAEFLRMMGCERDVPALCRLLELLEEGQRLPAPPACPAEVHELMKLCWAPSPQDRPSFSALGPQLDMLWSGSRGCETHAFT
Experimental: JAK3 enzyme activity was assayed relative to enzyme phosphorylation using the method described herein.
Sf21 cells derived from the ovarian tissue of the fall armyworm Spodotera frugiperda were obtained from Pharmingen (San Diego, Calif.) and maintained at a temperature of about 26-28° C. in 1 l Bellco spinner flasks at 60-90 rpm. Cell viability was maintained at 95-100%, as determined by a tryptan blue dye exclusion test.
Sf21 cells were infected with a baculovirus expression vector for JAK3 (JH1 and JH2 domain). After 48 hours of infection, cells were harvested and lysed in Tris-saline (pH 7.6) containing 2% NP-40 and a combination of protease inhibitors (Aprotinin, Pepstatin A, Pefabloc, E-64, Leupeptin, and Benzamidine) on ice for 45 minutes.
The JAK3 enzyme was purified from the lysate using glutathione sepharose beads and the enzyme activity was assessed in Costar flat bottom EIA/RIA 96 well plates. The plates were coated with Neutravidin (110 μL) (Pierce Neutravidin Biotin-binding Protein 31000; 1 mg/mL 1:100) diluted in PBS for 1 hour at room temperature. The plates were washed with PBS-0.1% Tween (3 times) to remove unbound Neutravidin, then 1% BSA (150 NIL) in PBS was added to each well to block non-specific binding. The plates was incubated for 1 hour at room temperature and stored at −80° C. until use.
JAK3 enzyme solution (48 μL) in 1.25×TK buffer (62.5 mM HEPES pH 7.5, 12.5 mM MgCl2) containing DTT (42 mM) (Sigma, St. Louis, Mo.) was added to each well of a polypropylene 96 well plate.
A test compound (5 μL) diluted in DMSO (48 μL) and biotinylated peptide enzyme substrate (5 μg diluted in TK buffer containing 10 μM ATP) were added to each well using the double dispense feature of a multichannel electronic biohit. Control wells received DMSO vehicle (5 μL). The contents of the wells were mixed for approximately 8 seconds using a multitube vortexer and the reaction mixture was incubated for 1 hour at room temperature.
After incubation, an aliquot of reaction mixture (90 μL) was transferred into a washed Neutravidin coated plate. The plate was incubated for 15 minutes at room temperature and washed 3 times with PBS-T. PY99 anti-phosphotyrosine antibody (100 μL/well) (Santa Cruz #sc-7020HRP diluted 1:6000 in 1× antibody buffer) was added into each well and the plate was incubated for 40 minutes at room temperature. The antibody buffer contained 10% BSA, 100 mM Tris (pH 7.5), 1M NaCl and 1% Tween 20. The plate washed 3 times with PBS-T, then TMB (100 pLXSigma, St. Louis, Mo.) was added to the each well. The plate was incubated for another 40 mins at room temperature in the dark. The reaction was stopped by the addition of 1M H2SO4 (50 μL/well) and the optical density was read at 450/650 nm.
Test compounds were assayed in triplicate at 16 concentrations at half-log dilutions starting at 200 μM. A maximum and minimum signal for the assay was determined on each plate. The percent inhibition of a test compound was calculated according to the formula [formula]
For a series of test concentrations, the IC50 was derived by graphing percent inhibition against the log of the concentrations tested for a given compound. For those compounds without an IC50, the percent inhibition results are shown at a test concentration of 1 μM.

Row | SMILES | IC50
1 | CN(C)CCNC(=O)OC1CCn2c3ccccc3c3c4c(c5c6ccccc6n(c5c32)C1)C(=O)NC4=O (centres unmarked) [Cpd 50, 12,13-{2-[(2-dimethylamino-ethyl)carbamoyloxy]-butan-1,4-yl}-12,13-dihydro-5,7-dioxo-6H-indolo[2,3-a]pyrrolo[3,4-c]carbazole] | 31 nM
2 | CN1CCN(C(=O)OC2CCn3c4ccccc4c4c5c(c6c7ccccc7n(c6c43)C2)C(=O)NC5=O)CC1 (centres unmarked) [Cpd 51, 12,13-{2-[(4-methyl-piperazin-1-yl)carbonyloxy]-butan-1,4-yl}-12,13-dihydro-5,7-dioxo-6H-indolo[2,3-a]pyrrolo[3,4-c]carbazole] | > 400 nM
3 | O=C1NC(=O)c2c1c1c3ccccc3n3c1c1c2c2ccccc2n1CC(OC(=O)N1CCCC1CN1CCCC1)CC3 (centres unmarked) [Cpd 52, 12,13-(2-{[2-(pyrrolidin-1-yl-methyl)pyrrolidin-1-yl]carbonyloxy}-butan-1,4-yl)-12,13-dihydro-5,7-dioxo-6H-indolo[2,3-a]pyrrolo[3,4-c]carbazole] | 446 nM
4 | O=C1NC(=O)c2c1c1c3ccccc3n3c1c1c2c2ccccc2n1CC(OC(=O)N1CCC(C2CCCCC2)CC1)CC3 (centres unmarked) [Cpd 53, 12,13-{2-[(4-cyclohexyl-piperazin-1-yl)carbonyloxy]-butan-1,4-yl}-12,13-dihydro-5,7-dioxo-6H-indolo[2,3-a]pyrrolo[3,4-c]carbazole] | > 400 nM
5 | O=C1NC(=O)c2c1c1c3ccccc3n3c1c1c2c2ccccc2n1CC(OC(=O)N1CCN(Cc2ccc4c(c2)OCO4)CC1)CC3 (centres unmarked) [Cpd 54, 12,13-(2-{[4-(benzo[1,3]dioxol-5-yl-methyl)piperazin-1-yl]carbonyloxy}-butan-1,4-yl)-12,13-dihydro-5,7-dioxo-6H-indolo[2,3-a]pyrrolo[3,4-c]carbazole] | 1000 nM
6 | O=C1NC(=O)c2c1c1c3ccccc3n3c1c1c2c2ccccc2n1CC(OC(=O)N1CCN(c2ccncc2)CC1)CC3 (centres unmarked) [Cpd 55, 12,13-{2-[(4-pyridin-4-yl-piperazin-1-yl)carbonyloxy]-butan-1,4-yl}-12,13-dihydro-5,7-dioxo-6H-indolo[2,3-a]pyrrolo[3,4-c]carbazole] | 314 nM
7 | O=C1NC(=O)c2c1c1c3ccccc3n3c1c1c2c2ccccc2n1CC(OC(=O)N1CCN(CCN2CCOCC2)CC1)CC3 (centres unmarked) [Cpd 56, 12,13-(2-{[4-(2-morpholin-4-yl-ethyl)piperazin-1-yl]carbonyloxy}-butan-1,4-yl)-12,13-dihydro-5,7-dioxo-6H-indolo[2,3-a]pyrrolo[3,4-c]carbazole] | 115 nM
8 | O=C1NC(=O)c2c1c1c3ccccc3n3c1c1c2c2ccccc2n1CC(OC(=O)N1CCN(CCN2CCCC2=O)CC1)CC3 (centres unmarked) [Cpd 57, 12,13-[2-({4-[2-(2-oxo-pyrrolidin-1-yl)ethyl]piperazin-1-yl}carbonyloxy)-butan-1,4-yl]-12,13-dihydro-5,7-dioxo-6H-indolo[2,3-a]pyrrolo[3,4-c]carbazole] | 41 nM
9 | O=C1NC(=O)c2c1c1c3ccccc3n3c1c1c2c2ccccc2n1CC(OC(=O)N1CCN(c2ccc(O)cc2)CC1)CC3 (centres unmarked) [Cpd 58, 12,13-(2-{[4-(4-hydroxy-phenyl)piperazin-1-yl]carbonyloxy}-butan-1,4-yl)-12,13-dihydro-5,7-dioxo-6H-indolo[2,3-a]pyrrolo[3,4-c]carbazole] | 98 nM
10 | CC(=O)c1ccc(N2CCN(C(=O)OC3CCn4c5ccccc5c5c6c(c7c8ccccc8n(c7c54)C3)C(=O)NC6=O)CC2)cc1 (centres unmarked) [Cpd 59, 12,13-(2-{[4-(4-methylcarbonyl-phenyl)piperazin-1-yl]carbonyloxy}-butan-1,4-yl)-12,13-dihydro-5,7-dioxo-6H-indolo[2,3-a]pyrrolo[3,4-c]carbazole] | 547 nM
11 | O=C1NC(=O)c2c1c1c3ccccc3n3c1c1c2c2ccccc2n1CC(OC(=O)N1CCCNCC1)CC3 (centres unmarked) [Cpd 60, 12,13-{2-[(hexahydro-1H-1,4-diazepin-1-yl)carbonyloxy]-butan-1,4-yl}-12,13-dihydro-5,7-dioxo-6H-indolo[2,3-a]pyrrolo[3,4-c]carbazole] | 156 nM
12 | CN(C(=O)OC1CCn2c3ccccc3c3c4c(c5c6ccccc6n(c5c32)C1)C(=O)NC4=O)C1CCN(Cc2ccccc2)C1 (centres unmarked) [Cpd 61, 12,13-{2-[N-methyl-N-(1-benzyl-pyrrolidin-3-yl)carbamoyloxy]-butan-1,4-yl}-12,13-dihydro-5,7-dioxo-6H-indolo[2,3-a]pyrrolo[3,4-c]carbazole] | 543 nM
13 | O=C1NC(=O)c2c1c1c3ccccc3n3c1c1c2c2ccccc2n1CC(OC(=O)N1CCN(C(c2ccccc2)c2ccccc2)CC1)CC3 (centres unmarked) [Cpd 62, 12,13-{2-[(4-benzhydryl-piperazin-1-yl)carbonyloxy]-butan-1,4-yl}-12,13-dihydro-5,7-dioxo-6H-indolo[2,3-a]pyrrolo[3,4-c]carbazole] | 496 nM
14 | O=C1NC(=O)c2c1c1c3ccccc3n3c1c1c2c2ccccc2n1CC(OC(=O)N1CCN(c2ccccn2)CC1)CC3 (centres unmarked) [Cpd 63, 12,13-{2-[(4-pyridin-2-yl-piperazin-1-yl)carbonyloxy]-butan-1,4-yl}-12,13-dihydro-5,7-dioxo-6H-indolo[2,3-a]pyrrolo[3,4-c]carbazole] | 129 nM
15 | O=C1NC(=O)c2c1c1c3ccccc3n3c1c1c2c2ccccc2n1CC(OC(=O)N1CCN(c2ccccc2)CC1)CC3 (centres unmarked) [Cpd 64, 12,13-{2-[(4-phenyl-piperazin-1-yl)carbonyloxy]-butan-1,4-yl}-12,13-dihydro-5,7-dioxo-6H-indolo[2,3-a]pyrrolo[3,4-c]carbazole] | 36 nM
16 | O=C1NC(=O)c2c1c1c3ccccc3n3c1c1c2c2ccccc2n1CC(OC(=O)N1CCN(CCc2ccccc2)CC1)CC3 (centres unmarked) [Cpd 65, 12,13-(2-{[4-(2-phenyl-ethyl)piperazin-1-yl]carbonyloxy}-butan-1,4-yl)-12,13-dihydro-5,7-dioxo-6H-indolo[2,3-a]pyrrolo[3,4-c]carbazole] | 1000 nM
17 | O=C1NC(=O)c2c1c1c3ccccc3n3c1c1c2c2ccccc2n1CC(OC(=O)N1CCN(CCO)CC1)CC3 (centres unmarked) [Cpd 66, 12,13-(2-{[4-(2-hydroxy-ethyl)piperazin-1-yl]carbonyloxy}-butan-1,4-yl)-12,13-dihydro-5,7-dioxo-6H-indolo[2,3-a]pyrrolo[3,4-c]carbazole] | 40 nM
18 | CN(C)CCN(C)C(=O)OC1CCn2c3ccccc3c3c4c(c5c6ccccc6n(c5c32)C1)C(=O)NC4=O (centres unmarked) [Cpd 67, 12,13-(2-{[N-methyl-N-(2-dimethylamino-ethyl)]carbamoyloxy}-butan-1,4-yl)-12,13-dihydro-5,7-dioxo-6H-indolo[2,3-a]pyrrolo[3,4-c]carbazole] | 247 nM
19 | CN(C)CCCN1CCN(C(=O)OC2CCn3c4ccccc4c4c5c(c6c7ccccc7n(c6c43)C2)C(=O)NC5=O)CC1 (centres unmarked) [Cpd 68, 12,13-(2-{[4-(3-dimethylamino-prop-1-yl)piperazin-1-yl]carbonyloxy}-butan-1,4-yl)-12,13-dihydro-5,7-dioxo-6H-indolo[2,3-a]pyrrolo[3,4-c]carbazole] | 433 nM
20 | CN(C)CCN(Cc1ccccc1)C(=O)OC1Cn2c3ccccc3c3c4c(c5c6ccccc6n(c5c32)CC1O)C(=O)NC4=O (centres unmarked) [Cpd 69, 12,13-(2-{[N-benzyl-N-(2-dimethylamino-ethyl)]carbamoyloxy}-3-hydroxy-butan-1,4-yl)-12,13-dihydro-5,7-dioxo-6H-indolo[2,3-a]pyrrolo[3,4-c]carbazole] | 55 nM
